From ChEMBL document CHEMBL1697781, “Assessment of the health effects of chemicals in humans: II. Construction of an adverse effects database for QSAR modeling” (Curr Drug Discov Technol, 2004)

Experiments:
Details in all cases: human; call rule not given here
Hepatotoxicity [1] = test: FDA HLAED, gamma-glutamyl transferase (GGT) increase
Hepatotoxicity [2] = test: FDA HLAED, serum glutamic pyruvic transaminase (SGPT) increase
Hepatotoxicity [3] = test: FDA HLAED, alkaline phosphatase increase
Hepatotoxicity [4] = test: FDA HLAED, lactate dehydrogenase (LDH) increase
Hepatotoxicity [5] = test: FDA HLAED, serum glutamic oxaloacetic transaminase (SGOT) increase
Hepatotoxicity [6] = test: FDA HLAED, liver enzyme composite activity
For GGT Increase - Index Value in this document: reference of the scale not given here.
For LDH Increase - Index Value in this document: reference of the scale not given here.

Structure (SMILES) | GGT Increase - Activity Score (Hepatotoxicity [1]) | GGT Increase - Index Value (Hepatotoxicity [1]) | GGT Increase - Number of Reports (Hepatotoxicity [1]) | SGPT Increase - Activity Score (Hepatotoxicity [2]) | SGPT Increase - Index Value (Hepatotoxicity [2]) | SGPT Increase - Number of Reports (Hepatotoxicity [2]) | Alkaline Phosphatase Increase - Activity Score (Hepatotoxicity [3]) | Alkaline Phosphatase Increase - Index Value (Hepatotoxicity [3]) | Alkaline Phosphatase Increase - Number of Reports (Hepatotoxicity [3]) | LDH Increase - Activity Score (Hepatotoxicity [4]) | LDH Increase - Index Value (Hepatotoxicity [4]) | LDH Increase - Number of Reports (Hepatotoxicity [4]) | SGOT Increase - Activity Score (Hepatotoxicity [5]) | SGOT Increase - Index Value (Hepatotoxicity [5]) | SGOT Increase - Number of Reports (Hepatotoxicity [5]) | Composite Activity - Active (Hepatotoxicity [6]) | Composite Activity - Marginal (Hepatotoxicity [6]) | Composite Activity - Score (Hepatotoxicity [6]) | other results
CCOC(=O)OC(C)OC(=O)[C@@H]1N2C(=O)[C@@H](NC(=O)[C@H](N)c3ccccc3)[C@H]2SC1(C)C (stereo partly specified) [BACAMPICILLIN] | Inactive | 0 | < 4 | Inactive | 0 | < 4 | Inactive | 0 | < 4 | Inactive | 0 | < 4 | Inactive | 0 | < 4 | 0 | 0 | Inactive | –
Nc1nnc(-c2cccc(Cl)c2Cl)c(N)n1 [LAMOTRIGINE] | Inactive | 2 | < 4 | Active | 4 | >= 4 | Inactive | 0.5 | < 4 | Marginally Active | 3 | >= 4 | Active | 4 | >= 4 | 2 | 1 | Active | –
CC(C)(C(=O)O)c1ccc(C(O)CCCN2CCC(C(O)(c3ccccc3)c3ccccc3)CC2)cc1 (stereo unspecified) [FEXOFENADINE] | Inactive | 0 | < 4 | Inactive | 0 | < 4 | Inactive | 0 | < 4 | Inactive | 0 | < 4 | Inactive | 0 | < 4 | – | – | – | Composite Activity - Active (Hepatotoxicity [6]; Liver): 0; Composite Activity - Marginal (Hepatotoxicity [6]; Liver): 0; Composite Activity - Score (Hepatotoxicity [6]; Liver): Inactive
CCCCc1nc(Cl)c(CO)n1Cc1ccc(-c2ccccc2-c2nn[nH]n2)cc1 [LOSARTAN] | Inactive | 0.6 | < 4 | Inactive | 1 | >= 4 | Inactive | 0.4 | < 4 | Inactive | 0.4 | < 4 | Inactive | 0.8 | >= 4 | 0 | 0 | Inactive | –
CC(C)(O/N=C(\C(=O)N[C@@H]1C(=O)N2C(C(=O)[O-])=C(C[n+]3ccccc3)CS[C@H]12)c1csc(N)n1)C(=O)O [CEFTAZIDIME] | Inactive | 0 | < 4 | Inactive | 0 | < 4 | Inactive | 0 | < 4 | Inactive | 0 | < 4 | Inactive | 0 | < 4 | 0 | 0 | Inactive | –
CC(=O)CCCCn1c(=O)c2c(ncn2C)n(C)c1=O [PENTOXIFYLLINE] | Inactive | 0 | < 4 | Inactive | 0.3 | < 4 | Inactive | 1 | >= 4 | Inactive | 0.6 | >= 4 | Inactive | 0.9 | >= 4 | 0 | 0 | Inactive | –
CC(Cc1ccc(O)c(O)c1)C(C)Cc1ccc(O)c(O)c1 (stereo unspecified) [NORDIHYDROGUAIARETIC ACID] | Inactive | 0 | < 4 | Inactive | 0 | < 4 | Inactive | 0 | < 4 | Inactive | 0 | < 4 | Inactive | 0 | < 4 | 0 | 0 | Inactive | –
Clc1ccc(CSC(Cn2ccnc2)c2ccc(Cl)cc2Cl)cc1 (stereo unspecified) [SULCONAZOLE] | Inactive | 0 | < 4 | Inactive | 0 | < 4 | Inactive | 0 | < 4 | Inactive | 0 | < 4 | Inactive | 0 | < 4 | – | – | – | Composite Activity - Active (Hepatotoxicity [6]; Liver): 0; Composite Activity - Marginal (Hepatotoxicity [6]; Liver): 0; Composite Activity - Score (Hepatotoxicity [6]; Liver): Inactive
COc1cc([C@@H]2c3cc4c(cc3[C@@H](O[C@@H]3O[C@@H]5CO[C@@H](c6cccs6)O[C@H]5[C@H](O)[C@H]3O)[C@H]3COC(=O)[C@H]23)OCO4)cc(OC)c1O [TENIPOSIDE] | Inactive | 0 | < 4 | Inactive | 0 | < 4 | Inactive | 0 | < 4 | Inactive | 0 | < 4 | Inactive | 0 | < 4 | 0 | 0 | Inactive | –
CC(C)[C@H](N)C(=O)OCCOCn1cnc2c(=O)[nH]c(N)nc21 [VALACYCLOVIR] | Inactive | 0 | < 4 | Inactive | No Shipping Units | < 4 | Inactive | No Shipping Units | < 4 | Inactive | 0 | < 4 | Inactive | No Shipping Units | < 4 | 0 | 0 | Inactive | –
Clc1ccc2c(c1)C(c1ccccc1)=NCc1nncn1-2 [ESTAZOLAM] | Inactive | 0.8 | < 4 | Inactive | 0.8 | < 4 | Inactive | 0 | < 4 | Inactive | 0 | < 4 | Inactive | 0.8 | < 4 | 0 | 0 | Inactive | –
CC(=O)Nc1ccc(O)cc1 [ACETAMINOPHEN] | Marginally Active | No Shipping Units | >= 4 | Active | No Shipping Units | >= 4 | Marginally Active | No Shipping Units | >= 4 | Marginally Active | No Shipping Units | >= 4 | Active | No Shipping Units | >= 4 | 2 | 3 | Active | –
